Patent US20250025543A1, “DRUG FOR TREATING AND/OR PREVENTING CANCER AND USE THEREOF” (YUANBEN (ZHUHAI HENGQIN) BIOTECHNOLOGY CO., LTD., priority 2021, published 2025)
Where two headings read alike, the source gives them in different places.

What was measured:
MC38 colon cancer [1] = system: MC38 colon cancer
Protocol: Mice were weighed and randomly divided into groups of 6. MC38 colon cancer cells were diluted with an IMDM basal medium and inoculated in the right axilla of the C57BL/J mice according to 5×10^5 cells/mouse, with a total amount of 100 μL/mouse, for modeling. After the tumor diameter reached 5 mm, the mice were divided into 4 groups, namely a normal saline control group (NS group), an immune checkpoint inhibitor anti-PD-1 antibody injection group (PD-1 group), a recombinant MBP-MUC1-N fusion protein vaccine group (vaccine group), and a recombinant MBP-MUC1-N fusion protein vaccine formulation in combination with immune checkpoint inhibitor anti-PD1 antibody group (combination group). On day 3, day 7, day 10, day 14, and day 17 of tumor bearing, the recombinant MBP-MUC1-N fusion protein vaccine formulation was intramuscularly injected at a dose of 100 μg/mouse (diluted with NS, with a total amount of 200 μL) for immunization, and the immune checkpoint inhibitor anti-PD-1 antibody was intraperitoneally injected at a dose of 250 μg/mouse (diluted with NS, with a total amount of 500 tL/mouse).
(§1) The tumor graft inhibition rate and the tumor inhibition rate of the subcutaneous colon cancer in each group were calculated. The formula is as follows: [tumor inhibition rate=(mean tumor weight in control group −mean tumor weight in experimental group)/mean tumor weight in control group×100%]. [tumor cure rate=(number of mice without tumor/total number of mice)×100%].

MC38 colon cancer [2] = test: Vaccine prepared by three-step purification in treatment of MC38 colon cancer alone, compared with anti-PD-1 antibody (Example 3); assay type: in vivo, C57 BL/6J mice
MC38 colon cancer [3] = conditions: for Tumor cure rate: groups of 8; for Tumor inhibition rate: vs NS control group
Protocol: as §1
Mice were weighed and randomly divided into groups of 8. MC38 colon cancer cells were diluted with an IMDM basal medium and inoculated in the right axilla of the C57BL/J mice according to 5×10^5 cells/mouse, with a total amount of 100 μL/mouse, for modeling. After the tumor diameter reached 5 mm, the mice were divided into 4 groups, namely a normal saline control group (NS group), an oxaliplatin injection group (oxaliplatin group), a recombinant MBP-MUC1-N fusion protein vaccine group (vaccine group), and an oxaliplatin in combination with recombinant MBP-MUC1-N fusion protein vaccine formulation group (combination group). On day 3, day 7, day 10, day 14, and day 17 of tumor bearing, the recombinant MBP-MUC1-N fusion protein vaccine formulation was intramuscularly injected at a dose of 100 pg/mouse (diluted with NS, with a total amount of 200 μL) for immunization, and oxaliplatin was intraperitoneally injected at a dose of 3 mg/kg (diluted with 12% DMSO).

Molecule | Tumor weight (MC38 colon cancer [1]; MC38 tumor-bearing mice, vaccine 100 μg/mouse i.m., anti-PD-1 antibody 250 μg/mouse i.p., day 3, 7, 10, 14, 17 of tumor bearing) [g] | Tumor inhibition rate (MC38 colon cancer [1]; from mean tumor weight vs NS control group) [%] | Tumor cure rate (MC38 colon cancer [1]; number of mice without tumor/total number of mice, groups of 6) [%] | Tumor volume (MC38 colon cancer [2]; 3 days after injection) | Tumor volume (MC38 colon cancer [2]; 7 days after injection) | Tumor volume (MC38 colon cancer [2]; 10 days after injection) | Tumor weight (MC38 colon cancer [2]; MC38 tumor-bearing mice, vaccine 50 μg/mouse i.m., anti-PD-1 antibody 200 μg/mouse i.p., day 3, 7, 10, 14 of tumor bearing) [g] | Tumor cure rate (MC38 colon cancer [2]; groups of 10) [%] | Tumor inhibition rate (MC38 colon cancer [2]; vs PBS control group) [%] | Tumor cure rate (MC38 colon cancer [3]) [%] | Tumor inhibition rate (MC38 colon cancer [3]) [%] | Tumor volume (MC38 colon cancer [3]; 5 days after injection) [cm^3] | Tumor volume (MC38 colon cancer [3]; 7 days after injection) [cm^3] | Survival time of the mice suffering from the cancer (MC38 colon cancer [3]; MC38 tumor-bearing mice, FIG. 3) [days]
Vaccine group: recombinant fusion protein of maltose-binding protein MBP and human mucin MUC1-N in tandem (SEQ ID NO. 3), as vaccine | 1.96 ± 0.80 | 26 | 0 | 0.41+0.17 cm^3 | 1.11+0.83 cm^3 | 1.53+0.55 cm^3 | 1.53 ± 0.55 | 40 | 40 | 0 | 27 | – | – | –
O=C1[O][Pt]2([NH][C@@H]3CCCC[C@H]3[NH]2)[O]C1=O [Oxaliplatin group, oxaliplatin] | – | – | – | – | – | – | – | – | – | 12.5 | 50 | 0.46 ± 0.12 | 0.81 ± 0.20 | 29
